Data set [1] addresses ACC1 (Homo sapiens (Human), UniProt Q13085). Briefly: ACC1 enzyme activity assay (ADP-Glo). It is filed as biochemical. The note with it: ACC1 enzyme 2 nM working solution, room temperature. Background: ADP-Glo first removes unused ATP, then detects ADP through luciferase.
A short description of data set [2]: Evaluation of compound distribution in rat liver. It counts as in vivo. Conditions: male SD rats, single oral 3 mg/kg, 0.25 h after administration. How it is done:
An acclimation period of 2-3 days was given before the experiments. The rats were fasted for 8-12 h before administration, supplied with water 2 h after administration and foods 4 h after administration.
6 mg of the test compound (based on free base) was weighed and added to 20 mL of ethanol-PEG400-saline (10:30:60). The mixture was vortexed for 2 min, and sonicated for 3 min, and then used to prepare a solution of test sample solution with a concentration of 0.3 mg/mL for oral administration. 100 μL of the test sample solution was volumed to 10 ng/mL with methanol, and a control sample of the same concentration was prepared. The concentrations of the test sample and control sample were detected by HPLC, and the accuracy was calculated.
SD rats were given a single oral administration of 3 mg/kg of test compound at a dose of 10 mL/kg. The rats were bled in femoral artery and ruptured in neck 0.25 h after administration. The liver and blood samples (anticoagulation with heparin sodium) were collected immediately, and placed on ice.
The homogenate was centrifuged (centrifugation conditions: 8000 rpm/min, 5 min, 4° C.). The supernatant was transferred and subjected to cryopreservation. The supernatant was thawed and centrifuged before injection, and the supernatant was collected and subjected to LC-MS/MS for analyzing the content of the compound in the supernatant sample.
The collected whole blood sample was placed on ice and centrifuged within 30 min (centrifugation conditions: 8000 rpm/min, 5 min, 4° C.). 100 μL of the upper layer of plasma was transferred, and precipitated with 300 μL of methanol. The mixture was shaken and centrifuged, and diluted with mobile phase. The supernatant was collected and subjected to LC-MS/MS for analyzing the content of the compound in the supernatant sample.

Data set [3] relates to Col1A1 gene expression in TGF-β1-induced LX-2 cells. In words: Inhibition of human hepatic stellate cells LX-2 activation in vitro (Col1A1 gene expression, real-time PCR). It is filed as cell-based. The note with it: TGFβ1 10 ng/mL, 24 h drug treatment, compound concentration of the tabulated value not stated (30, 10, 3 μM prepared). Here is the method:
The compounds of the present disclosure prepared in the above examples and the control compound were respectively formulated into 60 mM with DMSO for use.
DMSO stock solution of the compounds of the examples of the present disclosure and the control compound were sequentially diluted with culture medium to 30 μM, 10 μM, and 3 μM. TGF-β1 was dissolved to […] with 10 mM citric acid buffer in the kit (PeproTech) according to the instructions, ready for use.
LX-2 cells were inoculated into a 6-well culture plate at a density of 2×10^5 cells/mL after cell passage. Each well contained 2 mL DMEM with 10% FBS. The cells were cultured at 37° C. in a 5% CO2 incubator, which was recorded as Day 1. After 24 h (Day 2), the cell confluence reached 70-80%, the old culture medium was discarded, and the serum-free DMEM was used to treat the cells as low serum starvation. The old culture medium was discarded at Day 3, and the culture medium or the culture medium containing different concentrations of the drug was added for continuing culture. There were control group (serum-free DMEM culture medium), TGFβ1 group, TGFβ1+ compound group. The TGFβ1 working concentration was 10 ng/mL. 24 h after the drug treatment (Day 4), the cell medium was discarded and the cells were washed once with precooled 1×PBS and then subjected to total RNA extraction.
2.3.1 Sample pretreatment: 1 mL of TransZOL Up reagent was added to each well of the 6-well plate, and the well plate was placed horizontally for a while to let the lysis buffer evenly spread on the cell surface and lyse the cells. The cells were blown with a pipette to make the cells completely detached. The lysate was transferred to a 2 mL RNase free centrifuge tube and repeatedly blown and sucked until no significant pieces in the lysate.
The extracted RNA was diluted to a concentration of 0.1 μg-0.5 μg (Total RNA ≤1 μg) based on the same mass. The total RNA in the reverse transcription system of each sample in the experiment was about 500 ng.
Two replicates were set for each sample, and the relative expression of the target gene was calculated by the program in the PCR machine.
The threshold of the Real Time PCR result was automatically set by the Real Time PCR detector system. The relative expression of the Col1A1 gene was calculated as follows. ΔCt (Col1A1 in drug treatment group)=Avg. Ct (Col1A1 in drug treatment group)−Avg. Ct (GAPDH in drug treatment group) ΔCt (Col1A1 in TGF group)=Avg. Ct (Col1A1 in TGF group)−Avg. Ct (GAPDH in TGF group) ΔCt (Col1A1 in Control group)=Avg. Ct (Col1A1 in Control group)−Avg. Ct (GAPDH in Control group) ΔΔCt=Average value of ΔCt (Col1A1 in TGF group/drug treatment group)−ΔCt (Col1A1 in Control group)
Formula for calculating the relative expression of Col1A1 gene: RQ=^2−ΔΔCt
Relative quantification results were obtained by automatically analysis of ABI 7500 real-time quantitative PCR machine.
Background: In qPCR the cycle at which signal appears reflects the starting amount.

Read-outs that look alike come from different tables or passages of the source.

Take `COc1ccccc1[C@H](Cn1c(=O)n(C(C)(C)C(=O)O)c(=O)c2c(C)c(-c3ncco3)sc21)OC1CCOCC1` [ND-630, 2-[1-[2-(2-methoxyphenyl)-2-(oxecyclo-4-yloxy)ethyl]-5-methyl-6-(1,3-oxazol-2-yl)-2,4-dioxo-1H,2H,3H,4H-thieno[2,3-d]pyrimidin-3-yl]-2-methylpropanoic acid, reference compound]: the IC50 in data set [1] was 0.5 nM. Further, the concentration at 0.25 h in data set [2] (liver, read-out: Concentration in Liver) came out at 6070 ng/g; in data set [2] (plasma, read-out: Concentration in Plasma) it was 145 ng/mL. Also, the Kp at 0.25 h in data set [2] (liver/plasma, read-out: Liver/plasma distribution ratio) is 41.8. For the same molecule, the “Inhibition rate (%) of relative expression of the Col1A1 gene” value in data set [3] stood at 42.06%.

Usually IC50 stands for the point on the concentration scale where inhibition reaches its midpoint. High values mean weaker potency, low ones greater potency.

The values are drawn from patent US11186587B2, “Compound as ACC inhibitor and use thereof” (NANJING SANHOME PHARMACEUTICAL CO., LTD., priority 2017, dated 2021).
